Experimental findings from patent US20260335307A1, “ANTIMICROBIAL COMBINATIONS” (Helperby Therapeutics Limited, priority 2022, published 2026) are described below.

One experiment deals with ESBL E. coli. As to the kind of experiment: Chequerboard assay (OD600, MIC and FIC) of 4-mer combinations against ESBL E. coli. It counts as cell-based. The conditions noted are these: for MIC combination therapy (Y): drug in 4-mer ceftazidime, doxycycline; for Ratio Y:X: MIC combination / MIC monotherapy; for MIC Monotherapy (X): drug alone. An excerpt:
(§1) Synergy is not predictable or expected when two or more actives are used in combination. […] One of the ways to assess whether synergy has been observed is to use the “chequerboard” technique. This is a well-accepted method that leads to the generation of a value called the fractional inhibitory concentration index (FICI). Orhan et al., J. Clin. Microbiol. 2005, 43(1):140 describes the chequerboard method and analysis in the paragraph bridging pages 140-141, and explains that the FICI value is a ratio of the sum of the MIC (Minimum Inhibitory Concentration) level of each individual component alone and in the mixture.
FICI or fractional inhibitory concentration index is the sum of the FICs of each antimicrobial when used in combination. The FIC or fractional inhibitory concentration of an antimicrobial in a combination, is the MIC of the antimicrobial in the combination divided by the MIC of the same antimicrobial when used alone. Minimum inhibitory concentrations are defined in the art as the lowest concentration of an antimicrobial that will inhibit the visible growth of a microorganism after overnight incubation.
There has in fact been very little previous work in this field. […] This method is applicable for any combination with “n” antimicrobial agents.
In this method, two antibiotics were “fixed” as part of a backbone whilst the two other antibiotics were varied over a doubling concentration scale beginning at the MIC (×1) for the effective dose in monotherapy against the organism being tested. The ΣFIC was then calculated as shown below.
The ΣFIC was divided by “0.5/n” where n=number of antimicrobials in the combination to provide FIC. The inventors opted for this expression because it more closely aligns with the 2-mer synergy levels. The same FIC scale as used for 2-mers was applied: synergy is observed when FIC is <0.5. An “Additive” effect is observed when FIC is 0.5 to <1. Indifference is observed when FIC is 1 to <2. Antagonism is observed when FIC is 2 to 4.
Synergy can be expressed as “ΣFIC≤0.25×n”.
The above method was used in the Examples herein.
The antimicrobial agents were sourced from commercially available sources. They were prepared by being weighed and dissolved in water, PBS, DMSO or acidified water to a final concentration from 1-10 mg/mL. Antimicrobial solutions were diluted to 10× highest concentration used in the experiment and subsequently diluted 2x over a series not exceeding 11 serial dilutions. These left the operator with a maximum of 12 different, descending concentrations of the chosen antimicrobials.
The bacteria were obtained from Ninewells Hospital and Medical School in Dundee, Scotland. They were obtained as patient strains and characterised by Vitek 2 screening. To prepare for the Examples below, the bacteria were grown overnight in Mueller Hinton Cation adjusted broth or until confluent in media with or without supplements. The bacteria were measured for OD600 and readings of <0.25 were returned to the incubator.
All data herein was produced using the same chequerboard assay.
20 uL of antibiotic A (backbone) and 20 uL of antibiotic B (backbone), at a single dilution, were pipetted into all wells of a 96-well plate to be used.
20 uL of the lowest concentration of antibiotic C (first variable) was pipetted into column 1 of the 96-well plate. The second concentration (2-fold more concentrate) was pipetted into column 2. This process was repeated until all concentrations of antibiotic […] to be used were complete.
20 uL of the lowest concentration of antibiotic D (second variable) were pipetted into row A of the 96-well plate. The second concentration (2-fold more concentrate) was pipetted into row B. This process was repeated until all concentrations of antibiotic […] to be used were complete.
120 uL of sterile media (BHI/MHB2) was added.
20 ul of prepared bacterial culture was added.
Plates were sealed with lids and left to incubate for 16 hours, overnight.

Experiment [1] relates to KPC (Klebsiella pneumoniae carbapenemase) producing K. pneumoniae. As to the kind of experiment: Chequerboard assay (percentage kill from OD600, MIC and FIC) of 4-mer combination against KPC producing K. pneumoniae. The conditions noted are these: Example 4, backbone ceftazidime + colistin. It counts as cell-based.
Excerpt: as §1
FICI or fractional inhibitory concentration index is the sum of the FICs of each antimicrobial when used in combination. […]
In this method, two antibiotics were “fixed” as part of a backbone whilst the two other antibiotics were varied over a doubling concentration scale beginning at the MIC (×1) for the effective dose in monotherapy against the organism being tested. The ΣFIC was then calculated as shown below. […]
Synergy can be expressed as “ΣFIC≤0.25×n”. […]
The bacteria were obtained from Ninewells Hospital and Medical School in Dundee, Scotland. […] The bacteria were measured for OD600 and readings of <0.25 were returned to the incubator. […]

Setting [2] is: Example 1, backbone ceftazidime + doxycycline, colistin, rifampicin.
The mark [3] stands for this setting: Example 2, backbone colistin + doxycycline, colistin, levofloxacin.
[4] abbreviates: Example 3, backbone rifampicin + doxycycline, rifampicin, levofloxacin.
The mark [5] stands for this setting: Example 2, backbone colistin + doxycycline.
The mark [6] stands for this setting: Example 3, backbone rifampicin + doxycycline.
The mark [7] stands for this setting: Example 1, backbone ceftazidime + doxycycline.
Setting [8] is: Example 1, backbone colistin + ceftazidime.

A value given as a limit tells only on which side of the number the result lay.

As to `CC(C)(O/N=C(\C(=O)N[C@@H]1C(=O)N2C(C(=O)[O-])=C(C[n+]3ccccc3)CS[C@H]12)c1csc(N)n1)C(=O)O` [Ceftazidime], the MIC in the experiment on ESBL E. coli (Escherichia coli, read-out: isolate resistant to ceftazidime at) was ≥ 32 µg/mL. The results for the MIC combination therapy (Y) in the experiment on ESBL E. coli (setting [2]), with ESBL E. coli (setting [3]) and in the experiment with ESBL E. coli (setting [4]) were 4 µg/mL, 16 µg/mL and 16 µg/mL, respectively.

For the molecule `C[C@H]1COc2c(N3CCN(C)CC3)c(F)cc3c(=O)c(C(=O)O)cn1c23` [Levofloxacin], the “Ratio Y:X” value in the experiment with ESBL E. coli (setting [5]) and with ESBL E. coli (setting [6]) was 0.03125 each time. Also, the MIC Monotherapy (X) with ESBL E. coli (setting [5]) and with ESBL E. coli (setting [6]) was 8 µg/mL each time. The MIC combination therapy (Y) in the experiment with ESBL E. coli (setting [3]) and in the experiment on ESBL E. coli (setting [4]) was 0.25 µg/mL in each case.

For the molecule `C[C@H]1c2cccc(O)c2C(=O)C2=C(O)[C@]3(O)C(=O)C(C(N)=O)=C(O)[C@@H](N(C)C)[C@@H]3[C@@H](O)[C@@H]21` [Doxycycline], the MIC Monotherapy (X) (in experiment [1] (drug alone); with ESBL E. coli (setting [7]); in the experiment on ESBL E. coli (setting [8]); with ESBL E. coli (setting [5]); with ESBL E. coli (setting [6])) was 1 µg/mL each time. Besides, the MIC combination therapy (Y) in experiment [1] (drug in 4-mer ceftazidime, doxycycline, rifampicin, colistin) is 0.25 µg/mL; with ESBL E. coli (Example 1, backbone colistin + ceftazidime, colistin, rifampicin), 0.25 µg/mL.

As for `CO[C@H]1/C=C/O[C@@]2(C)Oc3c(C)c(O)c4c(O)c(c(/C=N/N5CCN(C)CC5)c(O)c4c3C2=O)NC(=O)/C(C)=C\C=C\[C@H](C)[C@H](O)[C@@H](C)[C@@H](O)[C@@H](C)[C@H](OC(C)=O)[C@@H]1C` [Rifampicin], the MIC Monotherapy (X) came to 4 µg/mL with ESBL E. coli (setting [7]), 4 µg/mL in the experiment with ESBL E. coli (setting [8]) and 1 µg/mL in the experiment on ESBL E. coli (setting [6]). For the same molecule, the MIC combination therapy (Y) in the experiment with ESBL E. coli (setting [2]) was found to be 0.5 µg/mL.
